According to patent US6355662B1, “Non-peptidyl inhibitors of a VLA-4 dependent cell binding useful in treating inflammatory, autoimmune, and respiratory diseases” (Pfizer Inc, priority 1998, dated 2002):

Row | SMILES | melting point [°C]
1 | Cc1ccccc1NC(=O)Nc1ccc(CC(=O)N2CCN(CCC(=O)O)C(=O)C2Cc2ccccc2)cc1 (stereo not shown) [Example 4, (3-Benzyl-2-oxo-4-{[4-(3-o-tolyl-ureido)-phenyl]-acetyl}-piperazin-1-yl)-propionic acid] | 103 to 105
2 | Cc1ccccc1NC(=O)Nc1ccc(CC(=O)NC(CC(C)C)C2=NOC(CCC(=O)O)(CCC(=O)O)C2)cc1 (stereo not shown) [Example 6, 3-[5-(2-Carboxy-ethyl)-3-(3-methyl-1-{2-[4-(3-o-tolyl-ureido)-phenyl]-acetylamino}-butyl)-4,5dihydro-isoxazol-5-yl]-propionic acid] | 173 to 175
3 | Cc1ccccc1NC(=O)Nc1ccc(CC(=O)NC(CC(C)C)c2ncc(CCC(=O)O)o2)cc1 (stereo not shown) [Example 8, [2-(3-Methyl-1-{2-[4-(3-o-tolyl-ureido)-phenyl]-acetylamino}-butyl)oxazol-5-yl]-propionic acid] | 168 to 170
4 | Cc1ccccc1NC(=O)Nc1ccc(CC(=O)NC2(c3cc(CCC(=O)O)on3)CCCC2)cc1 [Example 9, 3-[3-(1-{2-[4-(3-o-Tolyl-ureido)-phenyl]-acetylamino}-cyclopentyl)-isoxazol-5-yl]-propionic acid] | 195 to 197
5 | CC(C)CC(NC(=O)Cc1ccc(NC(=O)Nc2ccccn2)cc1)c1cc(CCC(=O)O)on1 (stereo not shown) [Example 10, [3-(3-Methyl-1-{2-[4-(3-pyridin-2-yl-ureido)-phenyl]-acetylamino}-butyl)-isoxazol-5-yl]-propionic acid] | 159 to 161
6 | CC(C)CC(NC(=O)Cc1ccc(NC(=O)Nc2ccccn2)cc1)c1ncc(CCC(=O)O)s1 (stereo not shown) [Example 11, [2-(3-Methyl-1-{2-[4-(3-pyridin-2-yl-ureido)-phenyl]-acetylamino}-butyl)-thiazol-5-yl]-propionic acid] | 173 to 175
7 | CC(C)CC(NC(=O)Cc1ccc(NC(=O)Nc2ccccc2Cl)cc1)c1ncc(CCC(=O)O)s1 (stereo not shown) [Example 15, 3-{2-[1-(2-{4-[3-(2-Chloro-phenyl)-ureido]-phenyl}-acetylamino)-3-methyl-butyl]-thiazol-5-yl}-propionic acid] | 173 to 175
8 | COc1ccccc1NC(=O)Nc1ccc(CC(=O)NC(CC(C)C)c2ncc(CCC(=O)O)s2)cc1 (stereo not shown) [Example 16, 3-{2-[1-(2-{4-[3-(2-Methoxy-phenyl)-ureido]-phenyl}-acetylamino)-3-methyl-butyl]-thiazol-5-yl}-propionic acid] | 197 to 198
9 | CC(C)CC(NC(=O)Cc1ccc(NC(=O)Nc2ccccc2F)cc1)c1ncc(CCC(=O)O)s1 (stereo not shown) [Example 17, 3-{2-[1-(2-{4-[3-(2-Fluoro-phenyl)-ureido]-phenyl}-acetylamino)-3-methyl-butyl]-thiazol-5-yl}-propionic acid] | 83 to 85
10 | Cc1ccccc1NC(=O)Nc1ccc(CC(=O)NC(CC(C)C)c2cc(/C=C/C(=O)O)on2)cc1 (stereo not shown) [Example 18, 3-[3-(3-Methyl-1-{2-[4-(3-o-tolyl-ureido)-phenyl]-acetylamino}-butyl)-isoxazol-5-yl]-acrylic acid] | 136 to 138
11 | CC(C)CC(NC(=O)Cc1ccc(NC(=O)Nc2c(Cl)cccc2Cl)cc1)c1ncc(CCC(=O)O)s1 (stereo not shown) [Example 19, 3-{2-[1-(2-{4-[3-(2,6-Dichloro-phenyl)-ureido]-phenyl}-acetylamino)-3-methyl-butyl]-thiazol-5-yl}-propionic acid] | 148 to 150
12 | Cc1cccc(C)c1NC(=O)Nc1ccc(CC(=O)NC(CC(C)C)c2ncc(CCC(=O)O)s2)cc1 (stereo not shown) [Example 20, 3-{2-[1-(2-{4-[3-(2,6-Dimethyl-phenyl)-ureido]-phenyl}-acetylamino)-3-methyl-butyl]-thiazol-5-yl}-propionic acid] | 125 to 127
13 | Cc1cccc(Cl)c1NC(=O)Nc1ccc(CC(=O)NC(CC(C)C)c2ncc(CCC(=O)O)s2)cc1 (stereo not shown) [Example 21, 3-{2-[1-(2-{4-[3-(2-Chloro-6-methyl-phenyl)-ureido]-phenyl}-acetylamino)-3-methyl-butyl]-thiazol-5-yl}-propionic acid] | 160 to 162
14 | CC(C)CC(NC(=O)Cc1ccc(NC(=O)Nc2ccccc2)cc1)c1ncc(CCC(=O)O)s1 (stereo not shown) [Example 22, 3-[2-(3-Methyl-1-{2-[4-(3-phenyl-ureido)-phenyl]-acetylamino}-butyl)-thiazol-5-yl]-propionic acid] | 146 to 148
15 | CC(C)CC(NC(=O)Cc1ccc(NC(=O)Nc2ccccc2Cl)cc1)c1cc(CCC(=O)O)on1 (stereo not shown) [Example 24, 3-{3-[1-(2-{4-[3-(2-Chloro-phenyl)-ureido]-phenyl}-acetylamino)-3-methyl-butyl]-isoxazol-5-yl}propionic acid] | 143 to 145
16 | CCOC(=O)CC(=O)c1cc(C(CC(C)C)NC(=O)Cc2ccc(NC(=O)Nc3ccccc3Cl)cc2)no1 (stereo not shown) [Example 26, 3-{3-[1-(2-{4-[3-(2-Chloro-phenyl)-ureido]-phenyl}-acetylamino)-3-methyl-butyl]-isoxazol-5-yl}-3-oxo-propionic acid ethyl ester] | 150 to 152
